In patent US5162354A, “3-halo-5-halomethyl-2-oxazolidinones and their use as microbicides” (Buckman Laboratories International, Inc., priority 1991, dated 1992):
Read-outs that look alike come from different tables or passages of the source.

Tests used:
Format in all cases: cell-based
[1] = system: Escherichia coli; experiment: AOAC Germicidal and Detergent Sanitizing Action of Disinfectants (Escherichia coli)
Method: This test is conducted according to AOAC methods described in AOAC Official Methods of Analysis (1984) p 70. This test is suitable for chemicals that can be permitted for use in sanitizing precleaned non-porous food contact surfaces. This test also determines the effectiveness of compounds tested in hard water. Most of the detergents/sanitizers available in the market become ineffective in the presence of hard water, i.e. water containing calcium and/or magnesium ions. A water hardness value of 400 ppm was chosen because it is considered to be the highest hardness value for tap water in the United States.

[2] = system: Aspergillus niger; experiment: Growth inhibiting activity on the fungus Aspergillus niger; details: Aspergillus niger pH 6.0; completely prevented growth; read-out: Minimum inhibitory concentration against fungi
Method: The microorganism growth inhibiting activity of compounds 1-4 on the fungus Aspergillus niger was evaluated. The method is described in U.S. Pat. No. 4,945,109, column 5 beginning at line 47 to column 6, line 33. The disclosure of U.S. Pat. No. 4,945,109 is incorporated herein by reference.

[3] = system: Enterobacter aerogenes; experiment: Basal salts method, minimum inhibitory concentration against Enterobacter aerogenes; details: Klebsiella aerogenes, at least 80% kill
Method: Compounds 1-4 of Examples 3-6 of the present invention were tested by the basal salts method described in U.S. Pat. No. 2,881,070 at column 5, beginning at line 12 and extending to column 6, line 53. […] The minimum inhibitory concentrations are those in which a percentage kill of at least 80% is obtained.

[4] = system: Salmonella choleraesuis; experiment: AOAC Disinfectant Swimming Pool Assay (Salmonella choleraesuis); details: Salmonella enterica, 10 min, contact time 10 minutes, read-out: MIC (Minimum inhibitory concentration required to inhibit microorganisms)
Method: (§1) This example was based on the procedure described in AOAC (Association of Official Analytical Chemists) Official Methods of Analysis (1986) pp 75-77. The results obtained by this method are suitable for presumptive evidence of acceptability of products for disinfecting swimming pool water. The results obtained for Compound 1 in a contact time of 10 minutes are noted in Table IV.

[5] = system: Chlorococcum hypnosporum; experiment: Growth inhibiting activity against algae in Difco Algae Broth (Chlorococcum hypnosporum); details: 672 h, pH 7, read-out: Minimum inhibitory concentration against algae
Method: The growth inhibiting activity of the method of the invention against the three algae Chlorella pyrenoidosa, Chlorococcum hypnosporum and Phormidium inundatum was evaluated in Difco Algae Broth, the content of which was as follows:
Forty-gram portions of the algae medium were added to 250 mL Pyrex Erlenmeyer flasks fitted with loose metal caps and then sterilized. Each of the following substances was then added to the flasks in the order listed:
1. Sterile algae medium as required to bring the total weight of the contents of each flask to 50 grams, after allowing for all subsequent additions specified below.
2. A solution of one of compounds 1-4 or of a control agent to be evaluated in each test, to give the concentration desired in parts per million by weight.
3. Chlorella pyrenoidosa, Chlorococcum hypnosporum and Phormidium inundatum in amounts sufficient to give excellent growth in the controls after 14 days. This was achieved by adding 1 milliliter of a 14 day old culture having luxuriant growth. The Chlorella pyrenoidosa culture was obtained from American Type Culture Collection No. 7516; Chlorococcum hypnosporum, from the University of TX at Austin; and Phormidium inundatum, WI No. 1093, from the University of WA.
As a control experiment, WSCP was used as a positive control agent. WSCP is a known toxicant which kills C. pyrenoidosa at 2 ppm, C. hypnosporum at 2ppm, and P. inundatum at 10 ppm. Control experiments were also carried out where no toxicants were employed. In the algicidal tests, the growth of algae in the nutrient medium is lush green and can be seen with the naked eye. Because the minimum inhibitory concentrations of the compounds in this example are those which result in complete inhibition, evaluation of the test results is not subjective.
After the inoculum of the test algae was added, the flasks were incubated at a temperature of 28°±2° C. under fluorescent illumination of 250 foot-candle intensity (8 hours light, 16 hours darkness) for a period adequate for growth in the controls (those portions of medium which contained no toxicant). Observations of growth were made at 7-day intervals. Minimum inhibitory concentrations are those that prevented complete growth after 28 days.

[6] = system: Escherichia coli; experiment: Efficacy of Sanitizers Recommended for Non-Food Contact Surfaces, ASTM E 1153-87 (Escherichia coli); details: 99.9% kill, read-out: Minimum inhibitory concentration required to inhibit microorganisms
Method: (§2) This test method is used to evaluate the antimicrobial efficacy of sanitizers on precleaned non-porous, non-food contact surfaces. This test was performed according to the test procedure E 1153-87 of ASTM. […] For most of the sanitizers, effectiveness is hampered (or minimum inhibitory concentrations go up) in the presence of an organic load. Therefore, the compounds of the present invention are tested both in the presence and absence of 5% organic load (Bovine albumin fraction V, Sigma Chemical Company).

[7] = system: Escherichia coli; experiment: AOAC Disinfectant Swimming Pool Assay (Escherichia coli); details: 10 min, contact time 10 minutes, read-out: MIC (Minimum inhibitory concentration required to inhibit microorganisms)
Method: as §1

[8] = system: Streptococcus faecalis; experiment: AOAC Disinfectant Swimming Pool Assay (Streptococcus faecalis); details: Enterococcus faecalis, 10 min, contact time 10 minutes, read-out: MIC (Minimum inhibitory concentration required to inhibit microorganisms)
Method: as §1

[9] = system: Staphylococcus aureus; experiment: Efficacy of Sanitizers Recommended for Non-Food Contact Surfaces, ASTM E 1153-87 (Staphylococcus aureus); details: 99.9% kill, read-out: Minimum inhibitory concentration required to inhibit microorganisms
Method: as §2

[10] = With 5% organic load (bovine albumin)

O=C1OC(CCl)CN1Br (stereo not shown) [Compound 1, 3-Bromo-5-chloromethyl-2-oxazolidinone]
160 µg/mL: MIC [6, 10] | MIC [9, 10]
10 µg/mL: MIC [2] | MIC ([3]; pH 6.0) | MIC ([3]; pH 8.0) | MIC [5]
80 µg/mL: MIC ([1]; Soft Water, read-out: Minimum inhibitory concentration required to inhibit microorganisms) | MIC [4] | MIC ([6]; Without organic load) | MIC [7] | MIC [8] | MIC ([9]; Without organic load)
80 parts per million (w/v): Minimum inhibitory concentration required to inhibit microorganisms ([1]; Hard Water (400 ppm calcium carbonate))
